Experimental data published in PubChem BioAssay AID248 (DTP/NCI, 2004).
Values joined by “and” are separate entries in the source; they are usually repeats but may differ in a detail not shown here. Equal values may be shown once. Toxic doses and inconclusive results are not listed. No stated cut-off is given here; in the data, active means T/C of 150% or more; inactive means T/C below 125%.

System: L1210 leukemia ip in BDF1 mice, survival T/C
Assay: NCI In Vivo Anticancer Drug Screen. Data for tumor model L1210 Leukemia (intraperitoneal) in B6D2F1 (BDF1) mice
Conditions: endpoint: mean survival time, higher = longer survival
How it was run: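 Tumor cells were implanted, animals were treated, and survival was followed. The result divides the treated measurement by the vehicle-control measurement.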

Measured: T/C

OC(CBr)C(O)C(O)C(O)CBr (stereo not drawn)
inactive: dose: 15.6 mg/kg/injection, schedule: Q03HX008 (ip), vehicle: carboxymethylcellulose (CMC) 90 % of control | dose: 15.6 mg/kg/injection, schedule: Q03HX024 (ip), vehicle: carboxymethylcellulose (CMC) 91 % of control | dose: 31.2 mg/kg/injection, schedule: Q#A X034 (ip), vehicle: carboxymethylcellulose (CMC) 99 % of control | dose: 31.25 mg/kg/injection, schedule: Q01DX Z (ip), vehicle: carboxymethylcellulose (CMC) 94 % of control | dose: 31.3 mg/kg/injection, schedule: Q03HX008 (ip), vehicle: carboxymethylcellulose (CMC) 96 % of control | dose: 31.3 mg/kg/injection, schedule: Q03HX024 (ip), vehicle: carboxymethylcellulose (CMC) 93 % of control | dose: 62.5 mg/kg/injection, schedule: Q01DX001 (ip), vehicle: carboxymethylcellulose (CMC) 101 % of control | dose: 62.5 mg/kg/injection, schedule: Q01DX009 (ip), vehicle: carboxymethylcellulose (CMC) 104 % of control | dose: 62.5 mg/kg/injection, schedule: Q01DX017 (ip), vehicle: carboxymethylcellulose (CMC) 98 % of control | dose: 62.5 mg/kg/injection, schedule: Q03HX008 (ip), vehicle: carboxymethylcellulose (CMC) 97 % of control and 98 % of control | dose: 62.5 mg/kg/injection, schedule: Q03HX024 (ip), vehicle: carboxymethylcellulose (CMC) 87 % of control | dose: 62.5 mg/kg/injection, schedule: Q#A X034 (ip), vehicle: carboxymethylcellulose (CMC) 95 % of control | dose: 63.0 mg/kg/injection, schedule: Q01DX Z (ip), vehicle: carboxymethylcellulose (CMC) 103 % of control and 94 % of control | dose: 71.0 mg/kg/injection, schedule: Q01DX009 (oral), vehicle: carboxymethylcellulose (CMC) 97 % of control | dose: 100.0 mg/kg/injection, schedule: Q01DX001 (ip), vehicle: saline 98 % of control | dose: 100.0 mg/kg/injection, schedule: Q01DX009 (ip), vehicle: other 103 % of control | dose: 106.0 mg/kg/injection, schedule: Q01DX009 (ip), vehicle: saline 100 % of control | dose: 107.0 mg/kg/injection, schedule: Q## X006 (oral), vehicle: carboxymethylcellulose (CMC) 94 % of control | dose: 120.0 mg/kg/injection, schedule: Q01DX001 (ip), vehicle: carboxymethylcellulose (CMC) 97 % of control | dose: 125.0 mg/kg/injection, schedule: Q01DX001 (ip), vehicle: carboxymethylcellulose (CMC) 95 % of control and 92 % of control | dose: 125.0 mg/kg/injection, schedule: Q01DX009 (ip), vehicle: carboxymethylcellulose (CMC) 104 % of control | dose: 125.0 mg/kg/injection, schedule: Q01DX015 (ip), vehicle: saline 102 % of control | dose: 125.0 mg/kg/injection, schedule: Q01DX Z (ip), vehicle: carboxymethylcellulose (CMC) 98 % of control and 92 % of control | dose: 125.0 mg/kg/injection, schedule: Q02DX005 (ip), vehicle: carboxymethylcellulose (CMC) 100 % of control | dose: 125.0 mg/kg/injection, schedule: Q02DX008 (ip), vehicle: carboxymethylcellulose (CMC) 95 % of control | dose: 125.0 mg/kg/injection, schedule: Q03HX008 (ip), vehicle: carboxymethylcellulose (CMC) 98 % of control | dose: 125.0 mg/kg/injection, schedule: Q03HX024 (ip), vehicle: carboxymethylcellulose (CMC) 105 % of control | dose: 125.0 mg/kg/injection, schedule: Q04DX003 (ip), vehicle: carboxymethylcellulose (CMC) 87 % of control | dose: 160.0 mg/kg/injection, schedule: Q01DX009 (ip), vehicle: saline 102 % of control | dose: 160.0 mg/kg/injection, schedule: Q## X006 (oral), vehicle: carboxymethylcellulose (CMC) 95 % of control | dose: 177.0 mg/kg/injection, schedule: Q01DX009 (ip), vehicle: acetone 113 % of control | dose: 200.0 mg/kg/injection, schedule: Q01DX001 (ip), vehicle: other 97 % of control | dose: 200.0 mg/kg/injection, schedule: Q01DX001 (ip), vehicle: saline 96 % of control | dose: 200.0 mg/kg/injection, schedule: Q01DX009 (ip), vehicle: other 105 % of control | dose: 240.0 mg/kg/injection, schedule: Q01DX009 (ip), vehicle: saline 104 % of control | dose: 240.0 mg/kg/injection, schedule: Q## X003 (oral), vehicle: carboxymethylcellulose (CMC) 96 % of control | dose: 250.0 mg/kg/injection, schedule: Q01DX001 (ip), vehicle: carboxymethylcellulose (CMC) 95 % of control and 104 % of control | dose: 250.0 mg/kg/injection, schedule: Q01DX009 (ip), vehicle: carboxymethylcellulose (CMC) 98 % of control | dose: 250.0 mg/kg/injection, schedule: Q01DX015 (ip), vehicle: saline 110 % of control | dose: 250.0 mg/kg/injection, schedule: Q01DX Z (ip), vehicle: carboxymethylcellulose (CMC) 93 % of control and 106 % of control | dose: 250.0 mg/kg/injection, schedule: Q02DX005 (ip), vehicle: carboxymethylcellulose (CMC) 95 % of control | dose: 250.0 mg/kg/injection, schedule: Q04DX003 (ip), vehicle: carboxymethylcellulose (CMC) 97 % of control | dose: 250.0 mg/kg/injection, schedule: Q#A X034 (ip), vehicle: carboxymethylcellulose (CMC) 98 % of control
